Reference: ChEMBL document CHEMBL1153256, “Unusual stereochemical preferences of decahydroisoquinoline-3-cargoxylic acid competitive NMDA antagonists” (Bioorg Med Chem Lett, 1993)
pIC50: −log10 of the molar value.

Key:
Glutamate NMDA receptor = assay: Inhibition of [3H]-CGS- 19755 binding to rat brain membrane NMDA receptor
Rattus norvegicus = organism: Rattus norvegicus; assay: Compound was tested for relative potency as NMDA antagonist by determining its ability to inhibit depolarizations induced by 40 uM NMDA in a cortical slice preparation.; format: functional
Mus musculus = organism: Mus musculus; assay: Minimum effective dose to prevent NMDA-induced lethality in mice; format: functional

Structure (SMILES)	pIC50 (Glutamate NMDA receptor)	pIC50 (Rattus norvegicus)	MED (Mus musculus) [mg/kg]
O=C(O)C1CC2CC(CP(=O)(O)O)CCC2CN1 (racemic; form 2)	6.09	5.77	2.5
O=C(O)C1CC2CC(Cc3nnn[nH]3)CCC2CN1 (racemic; form 1)	5.47	5.32	40
O=C(O)C1CC2CC(CP(=O)(O)O)CCC2CN1 (racemic; form 1)	7.26	6.82	1.25
O=C(O)C1CC2CC(Cc3nnn[nH]3)CCC2CN1 (stereo in doubt; (+)-4 S)	5.29	4.55	
O=C(O)C1CC2CC(Cc3nnn[nH]3)CCC2CN1 (stereo in doubt; (-)-4 R)	5.48	5.21	
O=C(O)C1CC2CC(CP(=O)(O)O)CCC2CN1 (stereo in doubt; (+)-3 S)	5.06		
O=C(O)C1CC2CC(CP(=O)(O)O)CCC2CN1 (stereo in doubt; (+)-1 R)	5.08	4.48	80
O=C(O)C1CC2CC(Cc3nnn[nH]3)CCC2CN1 (racemic; form 2)	6.03	5.86	2.5
O=C(O)C1CC2CC(CP(=O)(O)O)CCC2CN1 (single isomer, unassigned; (-))	7.60	6.66	0.625
O=C(O)C1CC2CC(Cc3nnn[nH]3)CCC2CN1 (single isomer, unassigned; (+))	4.65	< 4.00	>160
O=C(O)C1CC2CC(CP(=O)(O)O)CCC2CN1 (stereo in doubt; (-)-3 R)	6.17		
O=C(O)C1CC2CC(Cc3nnn[nH]3)CCC2CN1 (stereo in doubt; (-)-2 S)	6.38	6.09	1.25
